Measured values published in the NIST ThermoML archive (doi:10.1016/j.fluid.2014.09.014).

Test: refractive index (other wavelength) (dimensionless); xn = mol fraction of the nth substance listed
Conditions: 101 kPa, Liquid, Standard Abbe refractometry

CC(C)OC(C)C [diisopropyl ether] + CC(C)O
refractive index
Conditions | Wavelength=404.7 nm | Wavelength=435.8 nm | Wavelength=486.1 nm | Wavelength=546.1 nm | Wavelength=587.6 nm | Wavelength=589.3 nm | Wavelength=632.8 nm | Wavelength=644 nm | Wavelength=706.5 nm
293.5 K, x1 = 0.0277 | 1.388 | 1.38493 | 1.38147 | 1.3786 | 1.37708 | 1.37703 | 1.37572 | 1.37541 | 1.37391
293.5 K, x1 = 0.0507 | 1.3879 | 1.38485 | 1.38137 | 1.3785 | 1.37699 | 1.37693 | 1.37562 | 1.37531 | 1.37381
293.5 K, x1 = 0.051 | 1.38799 | 1.38492 | 1.38146 | 1.37859 | 1.37708 | 1.37702 | 1.3757 | 1.37539 | 1.37389
293.5 K, x1 = 0.0717 | 1.38774 | 1.38468 | 1.38121 | 1.37834 | 1.37683 | 1.37678 | 1.37545 | 1.37515 | 1.37366
293.5 K, x1 = 0.1528 | 1.38719 | 1.38413 | 1.38066 | 1.37779 | 1.37629 | 1.37623 | 1.37492 | 1.37461 | 1.37313
293.5 K, x1 = 0.1553 | 1.38719 | 1.38413 | 1.38066 | 1.37779 | 1.37629 | 1.37623 | 1.37492 | 1.37461 | 1.37313
293.5 K, x1 = 0.1938 | 1.38688 | 1.38381 | 1.38034 | 1.37747 | 1.37597 | 1.37591 | 1.37461 | 1.3743 | 1.37281
293.5 K, x1 = 0.2029 | 1.38669 | 1.38364 | 1.38016 | 1.3773 | 1.3758 | 1.37574 | 1.37443 | 1.37411 | 1.37263
293.5 K, x1 = 0.245 | 1.3865 | 1.38325 | 1.37977 | 1.37692 | 1.37541 | 1.37536 | 1.37405 | 1.37374 | 1.37227
293.5 K, x1 = 0.297 | 1.38605 | 1.383 | 1.37951 | 1.37666 | 1.37514 | 1.37509 | 1.37378 | 1.37347 | 1.372
293.5 K, x1 = 0.2973 | 1.38627 | 1.3832 | 1.37973 | 1.37687 | 1.37535 | 1.3753 | 1.374 | 1.3737 | 1.37222
293.5 K, x1 = 0.3068 | 1.38571 | 1.38264 | 1.37919 | 1.37631 | 1.37481 | 1.37475 | 1.37345 | 1.37314 | 1.37167
293.5 K, x1 = 0.398 | 1.38461 | 1.38154 | 1.37808 | 1.37522 | 1.37371 | 1.37366 | 1.37236 | 1.37206 | 1.37061
293.5 K, x1 = 0.4609 | 1.38404 | 1.38098 | 1.37753 | 1.37466 | 1.37315 | 1.3731 | 1.3718 | 1.3715 | 1.37005
293.5 K, x1 = 0.5434 | 1.38333 | 1.38026 | 1.37682 | 1.37395 | 1.37246 | 1.3724 | 1.37111 | 1.37078 | 1.36934
293.5 K, x1 = 0.6032 | 1.38277 | 1.37972 | 1.37624 | 1.3734 | 1.37188 | 1.37182 | 1.37052 | 1.37023 | 1.36879
293.5 K, x1 = 0.6371 | 1.3824 | 1.37934 | 1.37588 | 1.37304 | 1.37152 | 1.37146 | 1.37017 | 1.36988 | 1.36844
293.5 K, x1 = 0.701 | 1.38179 | 1.37873 | 1.37528 | 1.37243 | 1.37093 | 1.37087 | 1.36958 | 1.36928 | 1.36784
293.5 K, x1 = 0.754 | 1.38141 | 1.37834 | 1.3749 | 1.37205 | 1.37055 | 1.37049 | 1.3692 | 1.36891 | 1.36746
293.5 K, x1 = 0.791 | 1.38107 | 1.37802 | 1.37455 | 1.37172 | 1.37022 | 1.37016 | 1.36887 | 1.36857 | 1.36713
293.5 K, x1 = 0.8296 | 1.38071 | 1.37766 | 1.37423 | 1.37135 | 1.36987 | 1.36982 | 1.36854 | 1.36824 | 1.3668
293.5 K, x1 = 0.8864 | 1.38051 | 1.37747 | 1.374 | 1.37116 | 1.36966 | 1.36961 | 1.36832 | 1.36802 | 1.36658
293.5 K, x1 = 0.8903 | 1.38011 | 1.37706 | 1.37363 | 1.37076 | 1.36928 | 1.36922 | 1.36795 | 1.36765 | 1.3662
293.5 K, x1 = 0.9113 | 1.37989 | 1.37684 | 1.37339 | 1.37055 | 1.36905 | 1.369 | 1.36771 | 1.36741 | 1.36598
293.5 K, x1 = 0.9547 | 1.37948 | 1.37645 | 1.37301 | 1.37015 | 1.36866 | 1.36861 | 1.36732 | 1.36702 | 1.36559
293.5 K, x1 = 0.973 | 1.37918 | 1.37614 | 1.37271 | 1.36984 | 1.36836 | 1.3683 | 1.36703 | 1.36673 | 1.36529
293.5 K, x1 = 0.9771 | 1.37921 | 1.37617 | 1.37274 | 1.36988 | 1.36839 | 1.36834 | 1.36706 | 1.36675 | 1.36532
293.5 K, x1 = 1 | 1.37888 | 1.37585 | 1.37241 | 1.36955 | 1.36806 | 1.36801 | 1.36674 | 1.36644 | 1.36501
298.15 K, x1 = 0.0277 | 1.38582 | 1.38277 | 1.37932 | 1.37648 | 1.37498 | – | – | – | –
298.15 K, x1 = 0.0507 | 1.38573 | 1.38268 | 1.37925 | 1.37639 | 1.37488 | – | – | – | –
298.15 K, x1 = 0.051 | 1.38574 | 1.38276 | 1.37929 | 1.37644 | 1.37491 | – | – | – | –
298.15 K, x1 = 0.0717 | 1.38551 | 1.38247 | 1.37903 | 1.37618 | 1.37468 | – | – | – | –
298.15 K, x1 = 0.1528 | 1.38491 | 1.38186 | 1.37841 | 1.37557 | 1.37406 | – | – | – | –
298.15 K, x1 = 0.1553 | 1.38491 | 1.38186 | 1.37841 | 1.37557 | 1.37406 | – | – | – | –
298.15 K, x1 = 0.1938 | 1.38463 | 1.38158 | 1.37814 | 1.3753 | 1.37379 | – | – | – | –
298.15 K, x1 = 0.2029 | 1.38436 | 1.38132 | 1.37787 | 1.37502 | 1.37351 | – | – | – | –
298.15 K, x1 = 0.245 | 1.38392 | 1.38088 | 1.37746 | 1.37462 | 1.37311 | – | – | – | –
298.15 K, x1 = 0.297 | 1.38349 | 1.38044 | 1.377 | 1.37426 | 1.37265 | – | – | – | –
298.15 K, x1 = 0.2973 | 1.38372 | 1.38067 | 1.37725 | 1.37439 | 1.37289 | – | – | – | –
298.15 K, x1 = 0.3068 | 1.38326 | 1.38023 | 1.37678 | 1.37394 | 1.37243 | – | – | – | –
298.15 K, x1 = 0.398 | 1.38211 | 1.37907 | 1.37562 | 1.37278 | 1.37127 | – | – | – | –
298.15 K, x1 = 0.4609 | 1.3815 | 1.37845 | 1.37502 | 1.37217 | 1.37067 | – | – | – | –
298.15 K, x1 = 0.5434 | 1.38067 | 1.37764 | 1.3742 | 1.37135 | – | – | – | – | –
298.15 K, x1 = 0.6032 | 1.3801 | 1.37707 | 1.37364 | 1.3708 | – | – | – | – | –
298.15 K, x1 = 0.6371 | 1.37972 | 1.37669 | 1.37328 | 1.37042 | – | – | – | – | –
298.15 K, x1 = 0.701 | 1.37906 | 1.37604 | 1.37261 | 1.36978 | – | – | – | – | –
298.15 K, x1 = 0.754 | 1.37868 | 1.37567 | 1.37225 | 1.3694 | – | – | – | – | –
298.15 K, x1 = 0.791 | 1.3783 | 1.37529 | 1.37188 | 1.36903 | – | – | – | – | –
298.15 K, x1 = 0.8296 | 1.37799 | 1.37498 | 1.37154 | 1.36872 | – | – | – | – | –
298.15 K, x1 = 0.8864 | 1.37775 | 1.37471 | 1.37132 | 1.36847 | – | – | – | – | –
298.15 K, x1 = 0.8903 | 1.37734 | 1.37434 | 1.3709 | 1.36807 | – | – | – | – | –
298.15 K, x1 = 0.9113 | 1.37711 | 1.37411 | 1.37068 | 1.36785 | – | – | – | – | –
298.15 K, x1 = 0.9547 | 1.37676 | 1.37367 | 1.37025 | 1.36742 | – | – | – | – | –
298.15 K, x1 = 0.973 | 1.37634 | 1.37334 | 1.36994 | 1.3671 | – | – | – | – | –
298.15 K, x1 = 0.9771 | 1.37629 | 1.3733 | 1.36986 | 1.36704 | – | – | – | – | –
298.15 K, x1 = 1 | 1.37607 | 1.37308 | 1.36965 | 1.36683 | – | – | – | – | –
